{
  "source": "paper PMC6462224",
  "about": "(Nature chemical biology, 2018)",
  "molecular_target": "T1, M2R(S110R)_delta_ICL3 (Homo sapiens, UniProt P08172, DEL233-359/S110R)",
  "T1 sequence (P08172 with tags, fused parts or gaps S110R/DEL233-359)": "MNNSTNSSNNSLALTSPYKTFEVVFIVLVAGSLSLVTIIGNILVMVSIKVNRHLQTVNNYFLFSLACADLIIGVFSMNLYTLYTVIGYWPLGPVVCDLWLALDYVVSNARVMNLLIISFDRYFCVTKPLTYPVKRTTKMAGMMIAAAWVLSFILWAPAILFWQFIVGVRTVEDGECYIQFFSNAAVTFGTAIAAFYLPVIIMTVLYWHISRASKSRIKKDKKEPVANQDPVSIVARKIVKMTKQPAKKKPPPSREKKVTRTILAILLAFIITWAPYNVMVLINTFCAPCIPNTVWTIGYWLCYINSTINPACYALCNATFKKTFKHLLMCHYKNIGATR",
  "assay": "Inhibition of [3H]NMS binding to M2R",
  "details": "S110R vs wild type, Fig. 2e",
  "data": [
    {"molecule": "C[N+](C)(C)CC#CCOC1=NOCC1", "note": "[Iperoxo]", "values": [
      {"measurement": "reduction of affinity in S110R mutant relative to the wild type", "result": "~1000", "unit": "fold"}
    ]}
  ]
}
